Source: ChEMBL document CHEMBL5291721, “A preclinical secondary pharmacology resource illuminates target-adverse drug reaction associations of marketed drugs” (Nat Commun, 2023)

Assays:
[1] = biological target: Bile salt export pump (Homo sapiens, UniProt O95342); type: functional
[2] = biological target: Acetylcholinesterase (Homo sapiens, UniProt P22303); type: functional
[3] = biological target: T1, Alpha-2A adrenergic receptor (Homo sapiens, UniProt P08913)
T1 sequence (P08913 whole entry): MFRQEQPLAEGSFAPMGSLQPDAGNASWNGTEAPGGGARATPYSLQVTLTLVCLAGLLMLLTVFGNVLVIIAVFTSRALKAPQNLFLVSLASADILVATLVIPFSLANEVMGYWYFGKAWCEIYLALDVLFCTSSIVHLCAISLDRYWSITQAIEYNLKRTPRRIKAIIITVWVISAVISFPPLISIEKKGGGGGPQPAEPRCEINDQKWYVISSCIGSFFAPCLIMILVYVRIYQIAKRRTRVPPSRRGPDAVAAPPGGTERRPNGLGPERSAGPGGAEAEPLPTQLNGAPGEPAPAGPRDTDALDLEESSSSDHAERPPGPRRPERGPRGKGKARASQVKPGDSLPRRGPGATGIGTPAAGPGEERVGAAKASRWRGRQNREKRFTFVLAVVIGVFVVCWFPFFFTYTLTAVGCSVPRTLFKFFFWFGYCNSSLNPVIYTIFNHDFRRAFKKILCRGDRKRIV

[4] = biological target: D(1A) dopamine receptor (Homo sapiens, UniProt P21728)
[5] = biological target: D(3) dopamine receptor (Homo sapiens, UniProt P35462)
[6] = biological target: Prothrombin (Homo sapiens, UniProt P00734); type: functional
[7] = biological target: T2, 5-hydroxytryptamine receptor 1A (Homo sapiens, UniProt P08908)
T2 sequence (P08908 whole entry): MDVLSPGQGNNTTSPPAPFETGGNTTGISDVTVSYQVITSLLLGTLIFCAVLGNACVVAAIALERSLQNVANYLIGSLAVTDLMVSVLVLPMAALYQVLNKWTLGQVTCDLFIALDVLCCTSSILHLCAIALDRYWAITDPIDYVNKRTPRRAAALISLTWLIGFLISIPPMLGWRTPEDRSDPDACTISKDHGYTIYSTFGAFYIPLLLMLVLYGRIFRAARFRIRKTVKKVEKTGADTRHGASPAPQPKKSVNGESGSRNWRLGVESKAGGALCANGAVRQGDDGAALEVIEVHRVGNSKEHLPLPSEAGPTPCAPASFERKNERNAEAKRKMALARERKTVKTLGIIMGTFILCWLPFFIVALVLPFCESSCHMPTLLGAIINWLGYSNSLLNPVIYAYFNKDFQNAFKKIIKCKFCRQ

[8] = biological target: 5-hydroxytryptamine receptor 2B (Homo sapiens, UniProt P41595); type: functional, cell-based
[9] = biological target: T3, Amine oxidase [flavin-containing] A (Homo sapiens, UniProt P21397); type: functional
T3 sequence (P21397 whole entry): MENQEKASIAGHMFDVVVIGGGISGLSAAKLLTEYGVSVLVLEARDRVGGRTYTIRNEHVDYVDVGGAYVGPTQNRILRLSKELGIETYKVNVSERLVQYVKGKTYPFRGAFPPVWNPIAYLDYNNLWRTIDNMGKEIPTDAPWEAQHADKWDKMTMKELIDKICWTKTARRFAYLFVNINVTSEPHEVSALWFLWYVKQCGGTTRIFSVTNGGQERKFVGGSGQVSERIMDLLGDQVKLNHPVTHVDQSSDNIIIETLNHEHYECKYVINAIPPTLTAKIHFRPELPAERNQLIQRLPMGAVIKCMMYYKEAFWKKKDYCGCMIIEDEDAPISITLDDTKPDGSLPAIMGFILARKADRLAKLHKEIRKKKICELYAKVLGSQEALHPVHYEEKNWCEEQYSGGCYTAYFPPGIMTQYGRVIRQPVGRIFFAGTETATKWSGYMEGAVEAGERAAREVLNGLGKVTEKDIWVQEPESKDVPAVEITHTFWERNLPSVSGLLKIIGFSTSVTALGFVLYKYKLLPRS

[10] = biological target: Mu-type opioid receptor (Homo sapiens, UniProt P35372)
[11] = biological target: cGMP-inhibited 3',5'-cyclic phosphodiesterase 3A (Homo sapiens, UniProt Q14432); type: functional
[12] = biological target: 3',5'-cyclic-AMP phosphodiesterase 4A (Homo sapiens, UniProt P27815); type: functional
[13] = biological target: T4, Prostaglandin G/H synthase 1 (Homo sapiens, UniProt P23219); type: functional
[14] = biological target: T4, Prostaglandin G/H synthase 1; type: functional; remark: listed apart in the source
[15] = biological target: Sodium-dependent noradrenaline transporter (Homo sapiens, UniProt P23975)
[16] = biological target: Sodium-dependent dopamine transporter (Homo sapiens, UniProt Q01959)
[17] = biological target: T5, Thromboxane A2 receptor (Homo sapiens, UniProt P21731); type: functional, cell-based
T5 sequence (P21731 whole entry): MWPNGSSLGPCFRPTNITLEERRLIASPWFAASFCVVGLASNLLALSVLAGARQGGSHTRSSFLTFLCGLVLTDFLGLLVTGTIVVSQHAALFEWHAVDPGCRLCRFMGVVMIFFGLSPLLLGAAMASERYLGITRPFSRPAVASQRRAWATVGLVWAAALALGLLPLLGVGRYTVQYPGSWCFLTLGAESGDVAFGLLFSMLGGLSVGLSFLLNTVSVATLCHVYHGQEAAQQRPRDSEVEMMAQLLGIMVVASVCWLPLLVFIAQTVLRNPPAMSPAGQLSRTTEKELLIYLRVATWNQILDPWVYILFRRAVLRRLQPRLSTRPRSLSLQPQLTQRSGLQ

[18] = biological target: T5, Thromboxane A2 receptor; type: functional, cell-based; remark: listed apart in the source
Further: assay procedure not described here.

Bile salt export pump, sequence (O95342 whole entry): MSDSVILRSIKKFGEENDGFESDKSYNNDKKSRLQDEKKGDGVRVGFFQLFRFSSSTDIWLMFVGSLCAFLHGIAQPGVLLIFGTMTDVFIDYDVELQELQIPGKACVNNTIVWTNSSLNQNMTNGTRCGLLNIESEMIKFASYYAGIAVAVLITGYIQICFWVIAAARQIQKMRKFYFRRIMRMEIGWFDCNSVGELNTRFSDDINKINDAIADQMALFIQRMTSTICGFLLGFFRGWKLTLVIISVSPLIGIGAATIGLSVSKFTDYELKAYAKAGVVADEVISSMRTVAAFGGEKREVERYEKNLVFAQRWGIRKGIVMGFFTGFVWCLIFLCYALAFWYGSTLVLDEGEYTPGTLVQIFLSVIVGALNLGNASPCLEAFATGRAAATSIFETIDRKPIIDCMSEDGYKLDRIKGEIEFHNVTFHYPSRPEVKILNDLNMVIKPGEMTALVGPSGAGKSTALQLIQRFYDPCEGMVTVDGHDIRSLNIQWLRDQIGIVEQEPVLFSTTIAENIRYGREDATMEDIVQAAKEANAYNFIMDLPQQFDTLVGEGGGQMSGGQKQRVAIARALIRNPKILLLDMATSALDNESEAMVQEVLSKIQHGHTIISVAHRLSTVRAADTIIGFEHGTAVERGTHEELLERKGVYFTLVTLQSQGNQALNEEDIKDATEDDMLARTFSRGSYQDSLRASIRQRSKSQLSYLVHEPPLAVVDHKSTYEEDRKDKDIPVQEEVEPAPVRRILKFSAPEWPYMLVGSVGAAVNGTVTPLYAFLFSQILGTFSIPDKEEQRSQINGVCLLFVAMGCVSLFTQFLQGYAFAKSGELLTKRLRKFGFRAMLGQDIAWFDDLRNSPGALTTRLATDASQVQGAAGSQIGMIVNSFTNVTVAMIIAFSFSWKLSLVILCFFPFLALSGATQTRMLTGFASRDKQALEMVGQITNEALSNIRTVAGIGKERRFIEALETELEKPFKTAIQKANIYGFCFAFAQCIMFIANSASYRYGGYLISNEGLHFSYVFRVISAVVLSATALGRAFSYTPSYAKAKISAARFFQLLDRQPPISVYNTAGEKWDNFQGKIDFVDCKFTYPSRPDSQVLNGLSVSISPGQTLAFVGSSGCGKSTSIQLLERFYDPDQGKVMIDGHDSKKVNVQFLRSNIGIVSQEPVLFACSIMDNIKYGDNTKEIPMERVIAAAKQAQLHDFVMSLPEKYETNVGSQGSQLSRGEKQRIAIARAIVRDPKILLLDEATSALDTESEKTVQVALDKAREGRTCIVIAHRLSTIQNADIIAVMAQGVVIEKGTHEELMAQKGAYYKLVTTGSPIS
D(1A) dopamine receptor, sequence (P21728 whole entry): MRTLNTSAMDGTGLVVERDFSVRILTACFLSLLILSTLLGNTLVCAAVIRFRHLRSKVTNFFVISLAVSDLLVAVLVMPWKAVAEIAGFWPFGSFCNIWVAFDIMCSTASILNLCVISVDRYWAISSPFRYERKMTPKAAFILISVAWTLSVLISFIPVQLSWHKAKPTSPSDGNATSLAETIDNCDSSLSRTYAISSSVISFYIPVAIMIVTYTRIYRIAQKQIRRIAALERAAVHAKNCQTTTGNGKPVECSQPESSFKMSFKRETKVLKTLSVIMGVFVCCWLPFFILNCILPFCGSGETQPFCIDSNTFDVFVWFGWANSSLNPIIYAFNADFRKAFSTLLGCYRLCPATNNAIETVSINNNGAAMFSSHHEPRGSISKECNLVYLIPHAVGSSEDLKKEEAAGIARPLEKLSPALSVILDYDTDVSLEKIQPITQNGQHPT
5-hydroxytryptamine receptor 2B, sequence (P41595 whole entry): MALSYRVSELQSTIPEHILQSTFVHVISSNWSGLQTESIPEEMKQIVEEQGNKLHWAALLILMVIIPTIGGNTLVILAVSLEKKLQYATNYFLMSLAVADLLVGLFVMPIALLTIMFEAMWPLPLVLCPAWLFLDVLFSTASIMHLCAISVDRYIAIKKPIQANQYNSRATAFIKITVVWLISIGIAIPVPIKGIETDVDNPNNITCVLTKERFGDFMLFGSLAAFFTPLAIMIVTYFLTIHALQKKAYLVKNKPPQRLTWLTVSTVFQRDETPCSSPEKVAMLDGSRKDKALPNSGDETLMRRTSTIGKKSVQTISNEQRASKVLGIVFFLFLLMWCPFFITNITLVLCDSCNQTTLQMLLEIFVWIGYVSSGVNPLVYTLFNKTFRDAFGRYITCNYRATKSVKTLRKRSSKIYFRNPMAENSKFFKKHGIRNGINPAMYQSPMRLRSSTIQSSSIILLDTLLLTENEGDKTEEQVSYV
Acetylcholinesterase, sequence (P22303 whole entry): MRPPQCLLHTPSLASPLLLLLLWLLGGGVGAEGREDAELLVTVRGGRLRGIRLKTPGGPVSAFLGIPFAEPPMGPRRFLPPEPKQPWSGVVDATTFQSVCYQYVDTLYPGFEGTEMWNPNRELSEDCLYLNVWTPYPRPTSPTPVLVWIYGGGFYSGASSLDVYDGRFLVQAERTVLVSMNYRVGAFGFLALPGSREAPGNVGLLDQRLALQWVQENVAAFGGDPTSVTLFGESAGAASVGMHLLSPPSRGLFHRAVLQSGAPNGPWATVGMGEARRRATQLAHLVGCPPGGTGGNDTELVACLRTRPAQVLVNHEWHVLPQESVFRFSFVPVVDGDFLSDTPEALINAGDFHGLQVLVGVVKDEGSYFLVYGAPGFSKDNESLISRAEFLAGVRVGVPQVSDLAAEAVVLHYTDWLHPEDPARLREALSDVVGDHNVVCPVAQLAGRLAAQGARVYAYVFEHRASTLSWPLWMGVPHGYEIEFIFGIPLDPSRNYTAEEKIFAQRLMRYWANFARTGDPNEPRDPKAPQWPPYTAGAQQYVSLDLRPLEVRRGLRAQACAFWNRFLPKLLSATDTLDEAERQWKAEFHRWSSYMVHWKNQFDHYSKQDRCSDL
Mu-type opioid receptor, sequence (P35372 whole entry): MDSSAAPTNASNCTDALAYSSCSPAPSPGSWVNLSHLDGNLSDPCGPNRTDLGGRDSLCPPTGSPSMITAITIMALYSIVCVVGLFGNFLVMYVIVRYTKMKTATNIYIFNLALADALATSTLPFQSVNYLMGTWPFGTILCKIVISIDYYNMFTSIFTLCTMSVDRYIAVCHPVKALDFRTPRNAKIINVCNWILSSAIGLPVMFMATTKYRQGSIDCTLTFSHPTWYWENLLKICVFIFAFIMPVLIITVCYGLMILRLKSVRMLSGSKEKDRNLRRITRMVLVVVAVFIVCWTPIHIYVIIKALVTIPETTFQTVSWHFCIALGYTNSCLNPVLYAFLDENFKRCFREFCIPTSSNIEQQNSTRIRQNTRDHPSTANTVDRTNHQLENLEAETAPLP
T4 sequence (P23219 whole entry): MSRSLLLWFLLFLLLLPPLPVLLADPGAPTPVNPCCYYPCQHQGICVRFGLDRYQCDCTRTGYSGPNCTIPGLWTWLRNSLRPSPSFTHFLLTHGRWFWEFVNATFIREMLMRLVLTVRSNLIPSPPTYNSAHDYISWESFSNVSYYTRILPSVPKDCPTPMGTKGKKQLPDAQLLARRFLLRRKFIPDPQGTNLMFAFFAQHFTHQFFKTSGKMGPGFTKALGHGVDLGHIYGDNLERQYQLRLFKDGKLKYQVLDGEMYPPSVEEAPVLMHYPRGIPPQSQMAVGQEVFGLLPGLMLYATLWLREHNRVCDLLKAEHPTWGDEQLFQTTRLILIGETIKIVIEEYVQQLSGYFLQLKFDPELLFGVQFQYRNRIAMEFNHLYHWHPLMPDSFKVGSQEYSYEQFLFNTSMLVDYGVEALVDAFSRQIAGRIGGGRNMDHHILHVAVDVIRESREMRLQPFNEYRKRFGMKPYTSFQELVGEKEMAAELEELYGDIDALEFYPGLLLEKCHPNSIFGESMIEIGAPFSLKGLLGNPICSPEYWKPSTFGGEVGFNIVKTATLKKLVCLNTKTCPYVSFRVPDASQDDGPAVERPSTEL
Sodium-dependent dopamine transporter, sequence (Q01959 whole entry): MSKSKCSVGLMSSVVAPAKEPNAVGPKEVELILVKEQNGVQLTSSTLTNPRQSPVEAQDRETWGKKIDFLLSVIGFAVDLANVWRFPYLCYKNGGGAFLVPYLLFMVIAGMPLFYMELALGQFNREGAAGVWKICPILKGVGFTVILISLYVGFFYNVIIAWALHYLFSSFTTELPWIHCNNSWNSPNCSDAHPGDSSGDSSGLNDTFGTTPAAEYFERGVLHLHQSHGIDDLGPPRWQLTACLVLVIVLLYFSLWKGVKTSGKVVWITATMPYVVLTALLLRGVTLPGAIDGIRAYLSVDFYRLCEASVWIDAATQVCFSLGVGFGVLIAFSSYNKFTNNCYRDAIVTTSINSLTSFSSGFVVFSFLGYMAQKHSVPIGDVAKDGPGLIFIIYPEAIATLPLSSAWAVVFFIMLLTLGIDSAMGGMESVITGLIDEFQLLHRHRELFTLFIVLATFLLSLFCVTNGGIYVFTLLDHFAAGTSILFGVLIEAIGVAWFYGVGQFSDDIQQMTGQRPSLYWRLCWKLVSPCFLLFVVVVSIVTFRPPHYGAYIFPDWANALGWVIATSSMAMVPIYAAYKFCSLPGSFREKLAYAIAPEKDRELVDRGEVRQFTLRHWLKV
D(3) dopamine receptor, sequence (P35462 whole entry): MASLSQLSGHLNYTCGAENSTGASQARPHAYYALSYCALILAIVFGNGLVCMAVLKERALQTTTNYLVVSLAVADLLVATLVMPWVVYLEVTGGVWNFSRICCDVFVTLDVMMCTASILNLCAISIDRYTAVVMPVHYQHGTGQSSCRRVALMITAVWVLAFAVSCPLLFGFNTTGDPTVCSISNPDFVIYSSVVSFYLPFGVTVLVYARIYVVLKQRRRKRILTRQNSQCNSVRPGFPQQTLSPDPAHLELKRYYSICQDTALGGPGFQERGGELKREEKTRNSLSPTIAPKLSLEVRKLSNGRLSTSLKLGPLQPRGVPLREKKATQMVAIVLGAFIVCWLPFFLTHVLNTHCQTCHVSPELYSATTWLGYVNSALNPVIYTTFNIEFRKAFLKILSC

CC(=O)/N=c1/sc(S(N)(=O)=O)nn1C [METHAZOLAMIDE]
AC50 [1]: > 300 µM | AC50 [2]: > 30 µM | AC50 [3]: > 30 µM | AC50 [4]: > 30 µM | AC50 [5]: > 30 µM | AC50 [6]: > 30 µM | AC50 [7]: > 30 µM | AC50 [8]: > 30 µM | AC50 [9]: > 30 µM | AC50 [10]: > 30 µM | AC50 [11]: > 30 µM | AC50 [12]: > 30 µM | AC50 [13]: > 30 µM | AC50 [14]: > 30 µM | AC50 [15]: > 30 µM | AC50 [16]: > 30 µM | AC50 [17]: > 30 µM | AC50 [18]: > 30 µM

CCOc1ccc2ccccc2c1C(=O)N[C@@H]1C(=O)N2[C@@H]1SC(C)(C)[C@@H]2C(=O)O [NAFCILLIN]
AC50 [1]: 40 µM | AC50 [2]: > 30 µM | AC50 [3]: > 30 µM | AC50 [4]: > 30 µM | AC50 [5]: > 30 µM | AC50 [6]: > 30 µM | AC50 [7]: > 30 µM | AC50 [8]: > 30 µM | AC50 [9]: > 30 µM | AC50 [10]: > 30 µM | AC50 [11]: > 30 µM | AC50 [12]: > 30 µM | AC50 [13]: > 30 µM | AC50 [14]: > 30 µM | AC50 [15]: > 30 µM | AC50 [16]: > 30 µM | AC50 [17]: > 30 µM | AC50 [18]: > 30 µM

CC(=O)Oc1ccccc1C(=O)Nc1ncc([N+](=O)[O-])s1 [NITAZOXANIDE]
AC50 [1]: 45 µM | AC50 [2]: > 10 µM | AC50 [3]: > 30 µM | AC50 [4]: > 30 µM | AC50 [5]: > 30 µM | AC50 [6]: > 30 µM | AC50 [7]: > 30 µM | AC50 [8]: > 30 µM | AC50 [9]: > 30 µM | AC50 [10]: > 30 µM | AC50 [11]: > 30 µM | AC50 [12]: > 30 µM | AC50 [13]: 0.0114 µM | AC50 [14]: 9.53 µM | AC50 [15]: > 30 µM | AC50 [16]: > 30 µM | AC50 [17]: > 30 µM | AC50 [18]: > 10 µM

CC(C)COc1ccc(CNC(=O)N(Cc2ccc(F)cc2)C2CCN(C)CC2)cc1 [PIMAVANSERIN]
AC50 [1]: 65 µM | AC50 [2]: > 30 µM | AC50 [3]: > 30 µM | AC50 [4]: 5.78 µM | AC50 [5]: 2.66 µM | AC50 [6]: > 30 µM | AC50 [7]: > 30 µM | AC50 [8]: > 30 µM | AC50 [9]: > 30 µM | AC50 [10]: 16.7 µM | AC50 [11]: > 30 µM | AC50 [12]: > 30 µM | AC50 [13]: > 30 µM | AC50 [14]: > 30 µM | AC50 [15]: 6.92 µM | AC50 [16]: 12.8 µM | AC50 [17]: 14.1 µM | AC50 [18]: > 3 µM
